Key:
barnyard grass [1] = test: Test Example 5: herbicidal effect by foliage application, plastic box (Table 20, symbol H); type: in vivo, barnyard grass (Echinochloa crus-galli); details: foliage application, AAH 320 g/ha, evaluated three weeks after application
Procedure, shortened: (§1)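 Post-emergence foliar test in sterilized diluvial soil. Compound applied as water-diluted emulsion at a predetermined rate to 14-day-old plants; evaluation at three weeks.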

windgrass [2] = test: Test Example 4: herbicidal effect by soil treatment (Table 19, symbol L); type: in vivo, windgrass (Apera spica-venti); details: amount of applied herbicide 320 g/ha
Procedure, shortened: (§2)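 Emulsion of test compound, water-diluted to predetermined amount, sprayed on soil after sowing (seed depth ~1.5 cm, sterilized diluvial soil). Greenhouse, 25–30° C. Effect graded at three weeks post-spray.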

southern crabgrass [3] = test: Test Example 5: herbicidal effect by foliage application, plastic box (Table 20, symbol F); type: in vivo, southern crabgrass (Digitaria ciliaris); details: foliage application, AAH 320 g/ha, evaluated three weeks after application
Procedure, shortened: as §1

persian speedwell [4] = test: Test Example 4: herbicidal effect by soil treatment (Table 19, symbol R); type: in vivo, Persian speedwell (Veronica persica); details: amount of applied herbicide 320 g/ha
Procedure, shortened: as §2

redroot pigweed [5] = test: Test Example 5: herbicidal effect by foliage application, plastic box (Table 20, symbol N); type: in vivo, redroot pigweed (Amaranthus retroflexus); details: foliage application, AAH 320 g/ha, evaluated three weeks after application
Procedure, shortened: as §1

lambsquarters [6] = test: Test Example 5: herbicidal effect by foliage application, plastic box (Table 20, symbol O); type: in vivo, lambsquarters (Chenopodium album); details: foliage application, AAH 320 g/ha, evaluated three weeks after application
Procedure, shortened: as §1

redroot pigweed [7] = test: Test Example 4: herbicidal effect by soil treatment (Table 19, symbol N); type: in vivo, redroot pigweed (Amaranthus retroflexus); details: amount of applied herbicide 320 g/ha
Procedure, shortened: as §2

southern crabgrass [8] = test: Test Example 4: herbicidal effect by soil treatment (Table 19, symbol F); type: in vivo, southern crabgrass (Digitaria ciliaris); details: amount of applied herbicide 320 g/ha
Procedure, shortened: as §2

Chinese sprangletop = test: Test Example 3: herbicidal effect by foliage application, Wagner pot (Table 18, symbol D); type: in vivo, chinese sprangletop (Leptochloa chinensis); details: amount of applied herbicide 320 g/ha
Procedure, shortened: (§3)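 Plants were sown in alluvial soil held under 0.1–0.5 cm standing water and grown 14 days in a greenhouse at 25–30 °C. An emulsifiable formulation, water-diluted to the set dose, was then sprayed onto the foliage, and effects were scored three weeks later using previously defined criteria.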

Italian ryegrass [9] = test: Test Example 4: herbicidal effect by soil treatment (Table 19, symbol K); type: in vivo, Italian ryegrass (Lolium multiflorum); details: amount of applied herbicide 320 g/ha
Procedure, shortened: as §2

barnyard grass [10] = test: Test Example 4: herbicidal effect by soil treatment (Table 19, symbol H); type: in vivo, barnyard grass (Echinochloa crus-galli); details: amount of applied herbicide 320 g/ha
Procedure, shortened: as §2

velvetleaf [11] = test: Test Example 5: herbicidal effect by foliage application, plastic box (Table 20, symbol M); type: in vivo, velvetleaf (Abutilon theophrasti); details: foliage application, AAH 320 g/ha, evaluated three weeks after application
Procedure, shortened: as §1

persian speedwell [12] = test: Test Example 5: herbicidal effect by foliage application, plastic box (Table 20, symbol R); type: in vivo, Persian speedwell (Veronica persica); details: foliage application, AAH 320 g/ha, evaluated three weeks after application
Procedure, shortened: as §1

windgrass [13] = test: Test Example 5: herbicidal effect by foliage application, plastic box (Table 20, symbol L); type: in vivo, windgrass (Apera spica-venti); details: foliage application, AAH 320 g/ha, evaluated three weeks after application
Procedure, shortened: as §1

green foxtail [14] = test: Test Example 4: herbicidal effect by soil treatment (Table 19, symbol G); type: in vivo, green foxtail (Setaria viridis); details: amount of applied herbicide 320 g/ha
Procedure, shortened: as §2

chickweed [15] = test: Test Example 5: herbicidal effect by foliage application, plastic box (Table 20, symbol P); type: in vivo, common chickweed (Stellaria media); details: foliage application, AAH 320 g/ha, evaluated three weeks after application
Procedure, shortened: as §1

barnyard grass [16] = test: Test Example 3: herbicidal effect by foliage application, Wagner pot (Table 18, symbol H); type: in vivo, barnyard grass (Echinochloa crus-galli); details: amount of applied herbicide 320 g/ha
Procedure, shortened: as §3

late watergrass = test: Test Example 1: herbicidal activity, application before weed generation under submerged conditions (Table 16, symbol A); type: in vivo, late watergrass (Echinochloa oryzicola); details: 320 g/ha applied herbicide
Procedure, shortened: (§4)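 Alluvial soil was flooded to 4 cm depth, weed seeds were sown mixed and 2.5-leaf rice seedlings were transplanted. On sowing day, the compound's emulsion, diluted in water to a set dose, was applied to the water surface. Plants grew at 25–30 °C and were scored 0–5 after three weeks.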

blackgrass [17] = test: Test Example 4: herbicidal effect by soil treatment (Table 19, symbol J); type: in vivo, blackgrass (Alopecurus myosuroides); details: amount of applied herbicide 320 g/ha
Procedure, shortened: as §2

chickweed [18] = test: Test Example 4: herbicidal effect by soil treatment (Table 19, symbol P); type: in vivo, common chickweed (Stellaria media); details: amount of applied herbicide 320 g/ha
Procedure, shortened: as §2

velvetleaf [19] = test: Test Example 4: herbicidal effect by soil treatment (Table 19, symbol M); type: in vivo, velvetleaf (Abutilon theophrasti); details: amount of applied herbicide 320 g/ha
Procedure, shortened: as §2

green foxtail [20] = test: Test Example 5: herbicidal effect by foliage application, plastic box (Table 20, symbol G); type: in vivo, green foxtail (Setaria viridis); details: foliage application, AAH 320 g/ha, evaluated three weeks after application
Procedure, shortened: as §1

Italian ryegrass [21] = test: Test Example 5: herbicidal effect by foliage application, plastic box (Table 20, symbol K); type: in vivo, Italian ryegrass (Lolium multiflorum); details: foliage application, AAH 320 g/ha, evaluated three weeks after application
Procedure, shortened: as §1

blackgrass [22] = test: Test Example 5: herbicidal effect by foliage application, plastic box (Table 20, symbol J); type: in vivo, blackgrass (Alopecurus myosuroides); details: foliage application, AAH 320 g/ha, evaluated three weeks after application
Procedure, shortened: as §1

Japanese bulrush = test: Test Example 1: herbicidal activity, application before weed generation under submerged conditions (Table 16, symbol B); type: in vivo, Japanese bulrush (Schoenoplectus juncoides); details: 320 g/ha applied herbicide
Procedure, shortened: as §4

oval-leafed pondweed = test: Test Example 1: herbicidal activity, application before weed generation under submerged conditions (Table 16, symbol C); type: in vivo, oval-leafed pondweed (Monochoria vaginalis); details: 320 g/ha applied herbicide
Procedure, shortened: as §4

false cleavers = test: Test Example 4: herbicidal effect by soil treatment (Table 19, symbol Q); type: in vivo, false cleavers (Galium spurium); details: amount of applied herbicide 320 g/ha
Procedure, shortened: as §2

rice flat sedge = test: Test Example 3: herbicidal effect by foliage application, Wagner pot (Table 18, symbol E); type: in vivo, rice flat sedge (Cyperus iria); details: amount of applied herbicide 320 g/ha
Procedure, shortened: as §3

wild oat [23] = test: Test Example 4: herbicidal effect by soil treatment (Table 19, symbol I); type: in vivo, wild oat (Avena fatua); details: amount of applied herbicide 320 g/ha
Procedure, shortened: as §2

lambsquarters [24] = test: Test Example 4: herbicidal effect by soil treatment (Table 19, symbol O); type: in vivo, lambsquarters (Chenopodium album); details: amount of applied herbicide 320 g/ha
Procedure, shortened: as §2

wild oat [25] = test: Test Example 5: herbicidal effect by foliage application, plastic box (Table 20, symbol I); type: in vivo, wild oat (Avena fatua); details: foliage application, AAH 320 g/ha, evaluated three weeks after application
Procedure, shortened: as §1

| SMILES | H: barnyard grass, herbicidal effect (criteria 0-5) (barnyard grass [1]) | herbicidal effect on L: windgrass (windgrass [2]) | F: southern crabgrass, herbicidal effect (criteria 0-5) (southern crabgrass [3]) | herbicidal effect on R: persian speedwell (persian speedwell [4]) | N: redroot pigweed, herbicidal effect (criteria 0-5) (redroot pigweed [5]) | O: lambsquarters, herbicidal effect (criteria 0-5) (lambsquarters [6]) | herbicidal effect on N: redroot pigweed (redroot pigweed [7]) | herbicidal effect on F: southern crabgrass (southern crabgrass [8]) | herbicidal effect on D: Chinese sprangletop (Chinese sprangletop) | herbicidal effect on K: Italian ryegrass (Italian ryegrass [9]) | herbicidal effect on H: barnyard grass (barnyard grass [10]) | M: velvetleaf, herbicidal effect (criteria 0-5) (velvetleaf [11]) | R: persian speedwell, herbicidal effect (criteria 0-5) (persian speedwell [12]) | L: windgrass, herbicidal effect (criteria 0-5) (windgrass [13]) | herbicidal effect on G: green foxtail (green foxtail [14]) | P: chickweed, herbicidal effect (criteria 0-5) (chickweed [15]) | herbicidal effect on H: barnyard grass (barnyard grass [16]) | Herbicidal effect on A: late watergrass (grade 0-5) (late watergrass) | herbicidal effect on J: blackgrass (blackgrass [17]) | herbicidal effect on P: chickweed (chickweed [18]) | further results |
| --- | --- | --- | --- | --- | --- | --- | --- | --- | --- | --- | --- | --- | --- | --- | --- | --- | --- | --- | --- | --- | --- |
| COCCOCOc1c(C)nn(C)c(=O)c1-c1c(-c2ccc(OC(F)F)cc2)sc2ccc(F)cc12 [2-307] | 5 (Herbicidal rate of 90% or more (almost completely withered)) | 0 (Herbicidal rate of 5% or less (almost no effect)) | 2 (Herbicidal rate of 20% or more and less than 40%) | 5 (Herbicidal rate of 90% or more (almost completely withered)) | 5 (Herbicidal rate of 90% or more (almost completely withered)) | 5 (Herbicidal rate of 90% or more (almost completely withered)) | 5 (Herbicidal rate of 90% or more (almost completely withered)) | 4 (Herbicidal rate of 70% or more and less than 90%) | 5 (Herbicidal rate of 90% or more (almost completely withered)) | 1 (Herbicidal rate of 5% or more and less than 20%) | 3 (Herbicidal rate of 40% or more and less than 70%) | 5 (Herbicidal rate of 90% or more (almost completely withered)) | 5 (Herbicidal rate of 90% or more (almost completely withered)) | 3 (Herbicidal rate of 40% or more and less than 70%) | 4 (Herbicidal rate of 70% or more and less than 90%) | 5 (Herbicidal rate of 90% or more (almost completely withered)) | 5 (Herbicidal rate of 90% or more (almost completely withered)) | 0 (Herbicidal rate of 5% or less (almost no effect)) | 2 (Herbicidal rate of 20% or more and less than 40%) | 3 (Herbicidal rate of 40% or more and less than 70%) | herbicidal effect on M: velvetleaf (velvetleaf [19]): 0 (Herbicidal rate of 5% or less (almost no effect)); G: green foxtail, herbicidal effect (criteria 0-5) (green foxtail [20]): 5 (Herbicidal rate of 90% or more (almost completely withered)); K: Italian ryegrass, herbicidal effect (criteria 0-5) (Italian ryegrass [21]): 5 (Herbicidal rate of 90% or more (almost completely withered)); J: blackgrass, herbicidal effect (criteria 0-5) (blackgrass [22]): 4 (Herbicidal rate of 70% or more and less than 90%); Herbicidal effect on B: Japanese bulrush (grade 0-5) (Japanese bulrush): 3 (Herbicidal rate of 40% or more and less than 70%); Herbicidal effect on C: oval-leafed pondweed (grade 0-5) (oval-leafed pondweed): 0 (Herbicidal rate of 5% or less (almost no effect)); herbicidal effect on Q: false cleavers (false cleavers): 0 (Herbicidal rate of 5% or less (almost no effect)); herbicidal effect on E: rice flat sedge (rice flat sedge): 4 (Herbicidal rate of 70% or more and less than 90%); herbicidal effect on I: wild oat (wild oat [23]): 0 (Herbicidal rate of 5% or less (almost no effect)); herbicidal effect on O: lambsquarters (lambsquarters [24]): 5 (Herbicidal rate of 90% or more (almost completely withered)); I: wild oat, herbicidal effect (criteria 0-5) (wild oat [25]): 3 (Herbicidal rate of 40% or more and less than 70%) |
| CSCCSCc1ccc(-c2sc3ccc(F)cc3c2-c2c(O)c(C)nn(C)c2=O)cc1 [2-329] | 4 (Herbicidal rate of 70% or more and less than 90%) | 0 (Herbicidal rate of 5% or less (almost no effect)) | 5 (Herbicidal rate of 90% or more (almost completely withered)) | 0 (Herbicidal rate of 5% or less (almost no effect)) | 5 (Herbicidal rate of 90% or more (almost completely withered)) | 4 (Herbicidal rate of 70% or more and less than 90%) | 3 (Herbicidal rate of 40% or more and less than 70%) | 0 (Herbicidal rate of 5% or less (almost no effect)) | 4 (Herbicidal rate of 70% or more and less than 90%) | 0 (Herbicidal rate of 5% or less (almost no effect)) | 0 (Herbicidal rate of 5% or less (almost no effect)) | 5 (Herbicidal rate of 90% or more (almost completely withered)) | 5 (Herbicidal rate of 90% or more (almost completely withered)) | 5 (Herbicidal rate of 90% or more (almost completely withered)) | 0 (Herbicidal rate of 5% or less (almost no effect)) | 5 (Herbicidal rate of 90% or more (almost completely withered)) | 5 (Herbicidal rate of 90% or more (almost completely withered)) | 2 (Herbicidal rate of 20% or more and less than 40%) | 0 (Herbicidal rate of 5% or less (almost no effect)) | 0 (Herbicidal rate of 5% or less (almost no effect)) | herbicidal effect on M: velvetleaf (velvetleaf [19]): 0 (Herbicidal rate of 5% or less (almost no effect)); G: green foxtail, herbicidal effect (criteria 0-5) (green foxtail [20]): 5 (Herbicidal rate of 90% or more (almost completely withered)); K: Italian ryegrass, herbicidal effect (criteria 0-5) (Italian ryegrass [21]): 4 (Herbicidal rate of 70% or more and less than 90%); J: blackgrass, herbicidal effect (criteria 0-5) (blackgrass [22]): 4 (Herbicidal rate of 70% or more and less than 90%); Herbicidal effect on B: Japanese bulrush (grade 0-5) (Japanese bulrush): 0 (Herbicidal rate of 5% or less (almost no effect)); Herbicidal effect on C: oval-leafed pondweed (grade 0-5) (oval-leafed pondweed): 0 (Herbicidal rate of 5% or less (almost no effect)); herbicidal effect on Q: false cleavers (false cleavers): 0 (Herbicidal rate of 5% or less (almost no effect)); herbicidal effect on E: rice flat sedge (rice flat sedge): 4 (Herbicidal rate of 70% or more and less than 90%); herbicidal effect on I: wild oat (wild oat [23]): 0 (Herbicidal rate of 5% or less (almost no effect)); herbicidal effect on O: lambsquarters (lambsquarters [24]): 0 (Herbicidal rate of 5% or less (almost no effect)); I: wild oat, herbicidal effect (criteria 0-5) (wild oat [25]): 3 (Herbicidal rate of 40% or more and less than 70%) |
